Key:
C. reinhardtii cells = assay: Inhibitor (KCN, SHAM) effect on rates of dark respiration during sulfur deprivation, Clark electrode; assay type: cell-based, Chlamydomonas reinhardtii; conditions: SHAM 4 mM, 5 min, 17% O2
Method: To determine the precise moment of H2-photoproduction onset, we measured the percentage of H2 contained in the gas phase (˜7 ml) on the top of the vessel immediately after anaerobiosis by gas chromatography. The dissolved O2 and redox potential of the medium were also measured. Chlorophyll concentrations were then obtained spectrophotometrically in 95% ethanol cell extracts. The capacity for respiratory O2 consumption was measured with a Clark electrode at 25° C. under aerobic conditions (17% or 170 μM O2) after removing the samples from the culture vessel and equilibrating them with air for 5 minutes.
The PQ pool is further oxidized by dissolved O2 through the action of PQ-oxidase. In the mitochondria, NADH and FADH2 generated by the Krebs Cycle serve as the source of electrons for a membrane-bound electron transport chain with O2 as the final electron acceptor. The cytochrome oxidase transduces the production of 3 ATP molecules per pair of electrons transported. […]. In both cases, O2 is the terminal electron acceptor. The mitochondrial cytochrome oxidase in C reinhardtii is inhibited by KCN, carbon monoxide, and sodium azide, while the alternative oxidase is specifically affected by salicylic hydroxamic acid (SHAM). The putative chloroplast PQ oxidase, on the other hand, is not inhibited by SHAM and only slightly affected by KCN. By measuring the influence of two inhibitors, KCN and SHAM, on the rates of dark respiration, we tried to estimate the relative contributions of each of the three oxidases at different times after sulfur deprivation. The actual contributions of the three oxidases to the scavenging O2 in situ depend on many factors such as their relative KM's for O2 and the rate of diffusion of O2 from the chloroplast to the mitochondria. Thus, the inhibitor studies that follow may not directly reflect the actual situation in the photobioreactor, but they do indicate that changes in the relative contribution of the three oxidases occur over the course of sulfure deprivation.
Contributions to the mitochondrial cytochrome oxidase [CO], mitochondrial alternative oxidase [AO], and chlororespiration [CR] to the total respiration rate of C. reinhardtii cells are also shown during sulfur-deprivation. […].

[1] = test system: sulfur-depleted C. reinhardtii cells; assay: Effect of DCMU on the rate of H2 photoproduction by sulfur-depleted algal cultures; assay type: cell-based, Chlamydomonas reinhardtii; conditions: 10 μM DCMU added to culture after H2 gas production has started
Method: […]. DCMU was added to treated cells at the arrow. Time zero in this case represents the time after H2 photoproduction starts.
Chlamydomonas reinhardtii strain Dangeard C137+ was grown in Tris-acetate-phosphate (TAP) medium (pH, 7.0) under continuous cool-white fluorescent light. Late-log cells were pelleted three times by centrifiguation and re-suspended in the same medium, from which inorganic sulfure (TAP-S) was omitted. The cells were incubated under continuous fluorescent illumation (200-250 μE m^−2 s^−1 PAR) in cylindrical reactor vessels (600 ml) with a rotating glass rod and Teflon impellers for mixing. A magnetic bar was attached at the bottom of the rod to couple it to an external stirring motor, and the rate of mixing was 60-80 rpm. The vessels were sealed using a silicon stopper with an outlet tube inserted through it for gas collection. The gas produced by the cells was collected in an inverted graduated glass cylinder by water displacement.
The direct involvement of PSII-catalyzed water oxidation activity by sulfur-deprived cells was further investigated using PAM fluorescence techniques.

Row | Molecule | % SHAM inhibition (% AO) of respiration (C. reinhardtii cells; During H2 production) [%] | % SHAM inhibition (% AO) of respiration (C. reinhardtii cells; End of H2 production) [%] | % SHAM inhibition (% AO) of respiration (C. reinhardtii cells; Start of H2 production phase) [%] | % SHAM inhibition (% AO) of respiration (C. reinhardtii cells; Start of anaerobic phase) [%] | % SHAM inhibition (% AO) of respiration (C. reinhardtii cells; Start of sulfur depletion) [%] | decrease of the rate of H2 gas production [1] [%]
1 | O=C(NO)c1ccccc1O [SHAM, salicylic hydroxamic acid] | 38 | 100 | 13 | 0 | 25 | 
2 | DCMU |  |  |  |  |  | 80
